Experimental data as given in patent publication US5478864A, “Method for disinfection using a 1,n-bis(N^5 -trifluoromethyl-phenyl-N^1 -biguanido)-alkane” (Mitsubishi Materials Corp., priority 1991, dated 1995).
Converted amounts (≈) assume the structure as drawn. Read-outs that look alike come from different tables or passages of the source.

Key:
[1] = system: Escherichia coli IID 951; assay: minimum growth inhibition concentration, agar dilution; assay type: cell-based; details: IID951, Mueller-Hinton agar, IID 951, read-out: MIC
Method: (§1) Germicidal activity of the compound prepared in Example 1 (Compound I) was evaluated by the minimum growth inhibition concentration method (based on the standard method stipulated by Japan Society of Chemotherapy) and the phenol coefficient method.
(§2) A portion of the digluconate salt of the compound of Example 1 was dissolved in water and the solution was heated to dryness on a water bath. The dried salt was dissolved in acetic acid (potentiometric titration grade) and the concentration thereof was determined by potentiometric titration using a perchloric acid solution. The gluconate acid salt solution, whose concentration was thus determined, was diluted to predetermined concentrations with sterilized water. Each 1 ml of the solution of each concentration was placed in a Petri dish, 9 ml of Mueller-Hinton agar (supplied by Difco) was added thereto and well mixed. Thus sensitivity test media were prepared. The concentrations of the compound were 200 μg/ml and 2^n times wherein (n=-8 to 2). Separately, microorganism strains indicated in Table 1 were subcultured in propagation media (using Mueller-Hinton broth supplied by Difco) at 37° C. for 24 hours. The microorganism concentration was adjusted to 10^6 /ml. The thus obtained cultures were respectively inoculated on a series of sensitivity measuring culture media using an inoculation rod. […] The results are shown in Table 1 together with the result on chlorhexidine as a control.
(§3) Compounds of formula I, wherein the trifluoromethyl group is located at the p-position and n is 2, 3, 5, 8 and 11, were prepared starting from ethylene diamine dichloride, 1,3-propane diamine dichloride, 1,5-pentane diamine dichloride, 1,8-octane diamine dichloride or 1,11-undecane diamine dichloride, sodium dicyanamide and 4-trifluoromethyl aniline hydrochloride in accordance with the procedures as described above and minimum growth inhibition concentration (MIC) was determined in the same manner as above.
(§4) Disinfecting effect of the above-prepared compounds was tested by measurement of minimum growth inhibition concentration and by the test for immediate effect in the same manner as in Example 3.
(§5) Compounds of formula I, wherein the trifluoromethyl group is located at the m-position and n is 2, 3, 5 and 8, 11 were prepared starting from ethylene diamine dihydrochloride, 1,3-propane diamine dihydrochloride, 1,5-pentane diamine dihydrochloride, 1,8-octane diamine dihydrochloride or 1,11-undecane diamine dihydrochloride, sodium dicyanamide and 3-trifluoromethylaniline hydrochloride in accordance with the procedures of Example 4 and germicidal activity thereof were determined in the same manner.

[2] = system: Pseudomonas aeruginosa IID 1042; assay: as above; assay type: cell-based
Method: as §1, §2, §3, §4, §5

[3] = system: Staphylococcus aureus FDA 209-P; assay: as above; assay type: cell-based; details: FDA209, Mueller-Hinton agar
Method: as §1, §2, §3, §4, §5

[4] = system: Serratia marcescens IID 602; assay: as above; assay type: cell-based; details: IID602, Mueller-Hinton agar, IID 602, read-out: MIC
Method: as §1, §2, §3, §4, §5

[5] = system: dental plaque; details: Warner et al, 1973; cited from earlier work
[6] = system: Alcaligenes faecalis IPO 13111; assay: minimum growth inhibition concentration, agar dilution; assay type: cell-based; details: IPO13111, Mueller-Hinton agar, digluconate
Method: as §1, §2, §4

[7] = system: Klebsiella pneumoniae IID 865; assay: as above; assay type: cell-based; details: IID865, Mueller-Hinton agar, digluconate, read-out: MIC
Method: as §1, §2, §4

[8] = system: Escherichia coli NIHJ JC-2; assay: as above; assay type: cell-based; details: NIHJJC2, Mueller-Hinton agar, digluconate, NIHJ JC-2, read-out: MIC
Method: as §1, §2, §4

[9] = system: Pseudomonas aerugimosa (clinically collected); assay: as above; assay type: cell-based; details: Mueller-Hinton agar, digluconate
Method: as §1, §2, §4

[10] = system: Proteus vulgaris IID 874; assay: as above; assay type: cell-based; details: IID874, Mueller-Hinton agar, digluconate
Method: as §1, §2, §4

[11] = system: Escherichia coli IID 861; assay: as above; assay type: cell-based; details: IID861, Mueller-Hinton agar, digluconate, IID 861, read-out: MIC
Method: as §1, §2, §4

[12] = system: Achromobacter xylosoxidans RIMD 0101001; assay: as above; assay type: cell-based; details: RIMD0101001, Mueller-Hinton agar, digluconate
Method: as §1, §2, §4

[13] = system: Staphylococcus epidermis IID 866; assay: as above; assay type: cell-based; details: IID866, Mueller-Hinton agar, digluconate, IID 866, read-out: MIC
Method: as §1, §2, §4

[14] = system: Pseudomonas cepacia (collected Chiba Univ.); assay: as above; assay type: cell-based; details: Burkholderia cepacia, Mueller-Hinton agar, digluconate
Method: as §1, §2, §4

[15] = system: Flavobacterium meningosepticum RIMD 0614002; assay: as above; assay type: cell-based; details: Elizabethkingia meningoseptica, RIMD0614002; Mueller-Hinton agar; digluconate
Method: as §1, §2, §4

[16] = system: Staphylococcus aureus (clin'ly col'ted MRSA); assay: minimum growth inhibition concentration, agar dilution (first MRSA line); assay type: cell-based; details: Mueller-Hinton agar, digluconate, clinically collected MRSA, first line, read-out: MIC
Method: as §1, §2, §4

[17] = system: Escherichia coli IID 861; assay: test for immediate effect (phenol coefficient method); assay type: cell-based; details: of three runs, conc. 0.001%, 20° C.
Method: Immediate effect of this compound was evaluated in accordance with the phenol coefficient method described in "Directions for Hygienic Tests" compiled by the Ministry of Health and Welfare of Japan. The method is as follows. (1) Culture medium Each 10 ml of the bouillon described below was taken into test tubes and they were sterilized with high pressure steam at 120° C. for 20 minutes. (2) Test method Diluted solutions of a series of concentrations of the sample compound were prepared for each of microorganisms listed in Table 2. Each 10 ml of the solutions was put into an appraisal test tube and the test tubes were placed in a thermostat bath kept at 20° C. Each microorganism was subcultured in the above described bouillon medium for testing disinfectants for three generations (37° C. for 48 hours). Each 1 ml of each culture was placed in each of the above-described series of appraisal test tubes and well mixed. After 2.5, 5, 10 and 15 minutes, 0.1 ml of the content of each appraisal test tube was taken and inoculated onto each portion of the bouillon medium for testing disinfectants. […] Each test was carried out three times. Immediate effect of disinfectants was compared by number of test runs in which microorganism growth was observed. […]

[18] = system: Staphylococcus aureus (clin'ly col'ted MRSA); assay: minimum growth inhibition concentration, agar dilution (second MRSA line); assay type: cell-based; details: Mueller-Hinton agar, digluconate, clinically collected MRSA
Method: as §1, §2, §4

[19] = Pseudomonas aeruginosa, IID1042, Mueller-Hinton agar, read-out: MIC

N=C(NCCCCCCCCCCCNC(=N)NC(=N)Nc1cccc(C(F)(F)F)c1)NC(=N)Nc1cccc(C(F)(F)F)c1 [n = 11 (m-position)]
MIC [1]: 25 µg/mL (≈ 38.9 µM) | MIC [2, 19]: 400 µg/mL (≈ 622 µM) | MIC [3]: 12.5 µg/mL (≈ 19.4 µM) | MIC [4]: 100 µg/mL (≈ 156 µM)

N=C(NCCCCCCNC(=N)NC(=N)NC12CC3CC(CC(C3)C1)C2)NC(=N)NC12CC3CC(CC(C3)C1)C2 [bis-1-adamanthyl-substituted derivatives]
antiplaque activity [5]: at the same level as chlorhexidin or better

N=C(NCCCCCCCCNC(=N)NC(=N)Nc1cccc(C(F)(F)F)c1)NC(=N)Nc1cccc(C(F)(F)F)c1 [n = 8 (m-position)]
MIC [1]: 1.56 µg/mL (≈ 2.6 µM) | MIC [2, 19]: 25 µg/mL (≈ 41.6 µM) | MIC [3]: 1.56 µg/mL (≈ 2.6 µM) | MIC [4]: 6.25 µg/mL (≈ 10.4 µM)

N=C(NCCCCCCNC(=N)NC(=N)NC1CCCCC1)NC(=N)NC1CCCCC1 [bis-cyclohexyl-substituted]
antiplaque activity [5]: at the same level as chlorhexidin or better

N=C(NCCCNC(=N)NC(=N)Nc1ccc(C(F)(F)F)cc1)NC(=N)Nc1ccc(C(F)(F)F)cc1 [n = 3 (p-position)]
MIC [1]: 1.56 µg/mL (≈ 2.94 µM) | MIC [2, 19]: 50 µg/mL (≈ 94.3 µM) | MIC [3]: 0.78 µg/mL (≈ 1.47 µM) | MIC [4]: 6.25 µg/mL (≈ 11.8 µM)

N=C(NCCCCCCNC(=N)NC(=N)Nc1ccccc1)NC(=N)Nc1ccccc1 [bis-phenyl-substituted derivative]
antiplaque activity [5]: no antiplaque activity

N=C(NCCCCCCNC(=N)NC(=N)Nc1cccc(C(F)(F)F)c1)NC(=N)Nc1cccc(C(F)(F)F)c1 [Ex. 5, 1,6-bis(N^5-m-trifluoromethylphenyl-N^1-biguanido)-hexane]
MIC [6]: 6.25 µg/mL (≈ 10.9 µM) | MIC [7]: 1.56 µg/mL (≈ 2.72 µM) | MIC [8]: 1.56 µg/mL (≈ 2.72 µM) | MIC [9]: 25 µg/mL (≈ 43.7 µM) | MIC [10]: 12.5 µg/mL (≈ 21.8 µM) | MIC [11]: 1.56 µg/mL (≈ 2.72 µM) | MIC [12]: 25 µg/mL (≈ 43.7 µM) | MIC [13]: 1.56 µg/mL (≈ 2.72 µM) | MIC [14]: 50 µg/mL (≈ 87.3 µM) | MIC [15]: 200 µg/mL (≈ 349 µM) | MIC [16]: 3.13 µg/mL (≈ 5.47 µM) | number of test runs in which microorganism growth was observed ([17]; contact time 2.5 min): 2 | number of test runs in which microorganism growth was observed ([17]; contact time 5.0 min): 1 | number of test runs in which microorganism growth was observed ([17]; contact time 10.0 min): 0 | number of test runs in which microorganism growth was observed ([17]; contact time 15.0 min): 0 | antiplaque activity [5]: superior antiplaque activity at lower concentrations | MIC [1]: 1.56 µg/mL (≈ 2.72 µM) | MIC ([2]; Mueller-Hinton agar, listed as n = 6 (m-position)): 25.0 µg/mL (≈ 43.7 µM) | MIC [2, 19]: 25 µg/mL (≈ 43.7 µM) | MIC [3]: 0.78 µg/mL (≈ 1.36 µM) | MIC [4]: 6.25 µg/mL (≈ 10.9 µM) | MIC [18]: 1.56 µg/mL (≈ 2.72 µM)

N=C(NCCCNC(=N)NC(=N)Nc1cccc(C(F)(F)F)c1)NC(=N)Nc1cccc(C(F)(F)F)c1 [n = 3 (m-position)]
MIC [1]: 3.13 µg/mL (≈ 5.9 µM) | MIC [2, 19]: 50 µg/mL (≈ 94.3 µM) | MIC [3]: 3.13 µg/mL (≈ 5.9 µM) | MIC [4]: 12.5 µg/mL (≈ 23.6 µM)

N=C(NCCCCCCCCCCCNC(=N)NC(=N)Nc1ccc(C(F)(F)F)cc1)NC(=N)Nc1ccc(C(F)(F)F)cc1 [n = 11 (p-position)]
MIC [1]: 50 µg/mL (≈ 77.8 µM) | MIC [2, 19]: 400 µg/mL (≈ 622 µM) | MIC [3]: 12.5 µg/mL (≈ 19.4 µM) | MIC [4]: 100 µg/mL (≈ 156 µM)

N=C(NCCNC(=N)NC(=N)Nc1cccc(C(F)(F)F)c1)NC(=N)Nc1cccc(C(F)(F)F)c1 [n = 2 (m-position)]
MIC [1]: 12.5 µg/mL (≈ 24.2 µM) | MIC [2, 19]: 200 µg/mL (≈ 387 µM) | MIC [3]: 12.5 µg/mL (≈ 24.2 µM) | MIC [4]: 50 µg/mL (≈ 96.8 µM)

N=C(NCCCCCNC(=N)NC(=N)Nc1cccc(C(F)(F)F)c1)NC(=N)Nc1cccc(C(F)(F)F)c1 [n = 5 (m-position)]
MIC [1]: 3.13 µg/mL (≈ 5.6 µM) | MIC [2, 19]: 12.5 µg/mL (≈ 22.4 µM) | MIC [3]: 0.78 µg/mL (≈ 1.4 µM) | MIC [4]: 6.25 µg/mL (≈ 11.2 µM)

N=C(NCCNC(=N)NC(=N)Nc1ccc(C(F)(F)F)cc1)NC(=N)Nc1ccc(C(F)(F)F)cc1 [n = 2 (p-position)]
MIC [1]: 12.5 µg/mL (≈ 24.2 µM) | MIC [2, 19]: 200 µg/mL (≈ 387 µM) | MIC [3]: 25 µg/mL (≈ 48.4 µM) | MIC [4]: 50 µg/mL (≈ 96.8 µM)

N=C(NCCCCCNC(=N)NC(=N)Nc1ccc(C(F)(F)F)cc1)NC(=N)Nc1ccc(C(F)(F)F)cc1 [n = 5 (p-position)]
MIC [1]: 3.13 µg/mL (≈ 5.6 µM) | MIC [2, 19]: 12.5 µg/mL (≈ 22.4 µM) | MIC [3]: 0.78 µg/mL (≈ 1.4 µM) | MIC [4]: 6.25 µg/mL (≈ 11.2 µM)

N=C(NCCCCCCCCNC(=N)NC(=N)Nc1ccc(C(F)(F)F)cc1)NC(=N)Nc1ccc(C(F)(F)F)cc1 [n = 8 (p-position)]
MIC [1]: 1.56 µg/mL (≈ 2.6 µM) | MIC [2, 19]: 25 µg/mL (≈ 41.6 µM) | MIC [3]: 1.56 µg/mL (≈ 2.6 µM) | MIC [4]: 6.25 µg/mL (≈ 10.4 µM)
